{
  "source": "PubChem BioAssay AID1745844",
  "about": "(Carcinogenic Potency Database (CPDB), 2022)",
  "system": "rodent lifetime carcinogenesis bioassay, tumor incidence TD50",
  "experiment": "carcinogenic potency in animals, long-term in vivo studies, CPDB compilation (AID 1745844)",
  "note": "Calls of active or inactive are those of the source. The rule behind the calls is not given here.",
  "data": [
    {"smiles": "CC(COc1ccc(C(C)(C)C)cc1)OS(=O)OCCCl", "note": "(stereo unspecified)", "values": [
      {"measurement": "TD50", "setting": "mouse, strain B6AKF1, females, oral dosing, site: any site (literature study), lesion: several types, types named in the paper, dosed 80 weeks, study length 80 weeks", "result": 391, "unit": "mg/kg/day"},
      {"measurement": "TD50", "setting": "mouse, strain B6AKF1, females, oral dosing, site: lung, lesion: adenoma, dosed 80 weeks, study length 80 weeks", "result": 432, "unit": "mg/kg/day"},
      {"measurement": "TD50", "setting": "mouse, strain B6AKF1, males, oral dosing, site: liver, lesion: hepatoma, dosed 77 weeks, study length 77 weeks", "result": 15900, "unit": "mg/kg/day"},
      {"measurement": "TD50", "setting": "mouse, strain B6C3F1, females, oral dosing, site: any site (literature study), lesion: several types, types named in the paper, dosed 77 weeks, study length 77 weeks", "result": 92.7, "unit": "mg/kg/day"},
      {"measurement": "TD50", "setting": "mouse, strain B6C3F1, females, oral dosing, site: liver, lesion: hepatoma, dosed 77 weeks, study length 77 weeks", "result": 973, "unit": "mg/kg/day"},
      {"measurement": "TD50", "setting": "mouse, strain B6C3F1, females, oral dosing, site: lung, lesion: adenoma, dosed 77 weeks, study length 77 weeks", "result": 973, "unit": "mg/kg/day"},
      {"measurement": "TD50", "setting": "mouse, strain B6C3F1, males, oral dosing, site: any site (literature study), lesion: several types, types named in the paper, dosed 80 weeks, study length 80 weeks", "result": 103, "unit": "mg/kg/day"},
      {"measurement": "TD50", "setting": "mouse, strain B6C3F1, males, oral dosing, site: liver, lesion: hepatoma, dosed 80 weeks, study length 80 weeks", "result": 158, "unit": "mg/kg/day"},
      {"measurement": "TD50", "setting": "mouse, strain B6C3F1, males, oral dosing, site: liver, lesion: several types, types named in the paper, dosed 80 weeks, study length 80 weeks", "result": 126, "unit": "mg/kg/day"},
      {"measurement": "TD50", "setting": "rat, strain CFN, both sexes, in feed, site: bile duct, lesion: adenoma, dosed 104 weeks, study length 104 weeks", "result": 1010, "unit": "mg/kg/day"},
      {"measurement": "TD50", "setting": "rat, strain CFN, both sexes, in feed, site: liver, lesion: hyperplastic nodule, dosed 104 weeks, study length 104 weeks", "result": 61.8, "unit": "mg/kg/day"},
      {"measurement": "TD50", "setting": "rat, strain Food and Drug Research Laboratories stock rats, both sexes, in feed, site: liver, lesion: several types, types named in the paper, dosed 93 weeks, study length 104 weeks", "result": 430, "unit": "mg/kg/day"},
      {"measurement": "TD50", "setting": "rat, strain Osborne-Mendel, females, in feed, site: any site (literature study), lesion: benign tumor, dosed 104 weeks, study length 104 weeks", "result": "31.5 mg/kg/day (inactive)"},
      {"measurement": "carcinogen call", "setting": "rat, strain Osborne-Mendel, females, in feed, site: any site (literature study), lesion: malignant tumor, dosed 104 weeks, study length 104 weeks", "result": "negative (inactive)"},
      {"measurement": "carcinogen call", "setting": "rat, strain Osborne-Mendel, females, in feed, site: any site (literature study), lesion: several types, types named in the paper, dosed 117 weeks, study length 117 weeks", "result": "negative (inactive)"},
      {"measurement": "TD50", "setting": "rat, strain Osborne-Mendel, females, in feed, site: liver, lesion: hemangioma, dosed 117 weeks, study length 117 weeks", "result": "256 mg/kg/day (inactive)"},
      {"measurement": "carcinogen call", "setting": "rat, strain Osborne-Mendel, females, in feed, site: liver, lesion: one or several types, types not named, dosed 104 weeks, study length 104 weeks", "result": "negative (inactive)"},
      {"measurement": "TD50", "setting": "rat, strain Osborne-Mendel, males, in feed, site: any site (literature study), lesion: benign tumor, dosed 104 weeks, study length 104 weeks", "result": "64.7 mg/kg/day (inactive)"},
      {"measurement": "carcinogen call", "setting": "rat, strain Osborne-Mendel, males, in feed, site: any site (literature study), lesion: malignant tumor, dosed 104 weeks, study length 104 weeks", "result": "negative (inactive)"},
      {"measurement": "TD50", "setting": "rat, strain Osborne-Mendel, males, in feed, site: any site (literature study), lesion: malignant tumor, dosed 117 weeks, study length 117 weeks", "result": "101 mg/kg/day (inactive)"},
      {"measurement": "TD50", "setting": "rat, strain Osborne-Mendel, males, in feed, site: any site (literature study), lesion: several types, types named in the paper, dosed 117 weeks, study length 117 weeks", "result": "198 mg/kg/day (inactive)"},
      {"measurement": "carcinogen call", "setting": "rat, strain Osborne-Mendel, males, in feed, site: liver, lesion: one or several types, types not named, dosed 104 weeks, study length 104 weeks", "result": "negative (inactive)"},
      {"measurement": "carcinogen call", "setting": "rat, strain Osborne-Mendel, males, in feed, site: liver, lesion: one or several types, types not named, dosed 117 weeks, study length 117 weeks", "result": "negative (inactive)"},
      {"measurement": "TD50", "setting": "rat, strain Sprague-Dawley, both sexes, in feed, site: liver, lesion: hyperplastic nodule, dosed 104 weeks, study length 104 weeks", "result": 760, "unit": "mg/kg/day"},
      {"measurement": "TD50", "setting": "rat, strain Wistar/FDRL, both sexes, in feed, site: bile duct, lesion: adenoma, dosed 104 weeks, study length 104 weeks", "result": 397, "unit": "mg/kg/day"},
      {"measurement": "TD50", "setting": "rat, strain Wistar/FDRL, both sexes, in feed, site: liver, lesion: hepatocellular carcinoma, dosed 104 weeks, study length 104 weeks", "result": 1000, "unit": "mg/kg/day"},
      {"measurement": "TD50", "setting": "rat, strain Wistar/FDRL, both sexes, in feed, site: liver, lesion: hyperplastic nodule, dosed 104 weeks, study length 104 weeks", "result": 79.9, "unit": "mg/kg/day"}
    ]},
    {"smiles": "CN(N=O)c1ccc(C=Cc2ccnc3ccccc23)cc1", "values": [
      {"measurement": "TD50", "setting": "rat, strain Fischer, females, in feed, site: liver, lesion: hyperplastic nodule, dosed 34 weeks, study length 52 weeks", "result": 0.468, "unit": "mg/kg/day"},
      {"measurement": "TD50", "setting": "rat, strain Fischer, males, in feed, site: liver, lesion: carcinoma, dosed 34 weeks, study length 52 weeks", "result": 4.37, "unit": "mg/kg/day"},
      {"measurement": "TD50", "setting": "rat, strain Fischer, males, in feed, site: liver, lesion: hyperplastic nodule, dosed 34 weeks, study length 52 weeks", "result": 1.38, "unit": "mg/kg/day"}
    ]},
    {"smiles": "C1CNCCN1", "values": [
      {"measurement": "TD50", "setting": "rat, strain MRC, females, in drinking water, site: any site (literature study), lesion: several types, types named in the paper, dosed 75 weeks, study length 104 weeks", "result": 11.2, "unit": "mg/kg/day"}
    ]},
    {"smiles": "C[C@H](CCc1ccccc1)NC[C@H](O)c1ccc(O)c(C(N)=O)c1", "values": [
      {"measurement": "carcinogen call", "setting": "rat, strain Sprague-Dawley, females, in feed, site: heart, lesion: endocardial sarcoma, dosed 104 weeks, study length 104 weeks", "result": "negative (inactive)"},
      {"measurement": "carcinogen call", "setting": "rat, strain Sprague-Dawley, males, in feed, site: heart, lesion: endocardial sarcoma, dosed 104 weeks, study length 104 weeks", "result": "negative (inactive)"}
    ]},
    {"smiles": "CCCCCCCCCCN(C)N=O", "values": [
      {"measurement": "carcinogen call", "setting": "rat, strain Fischer 344, males, by gavage, site: any site (literature study), lesion: several types, types named in the paper, dosed 30 weeks, study length 102 weeks", "result": "positive"},
      {"measurement": "TD50", "setting": "rat, strain Fischer 344, males, by gavage, site: forestomach, lesion: carcinoma, dosed 30 weeks, study length 102 weeks", "result": 46.6, "unit": "mg/kg/day"},
      {"measurement": "TD50", "setting": "rat, strain Fischer 344, males, by gavage, site: forestomach, lesion: papilloma, dosed 30 weeks, study length 102 weeks", "result": 46.6, "unit": "mg/kg/day"},
      {"measurement": "TD50", "setting": "rat, strain Fischer 344, males, by gavage, site: liver, lesion: hepatocellular carcinoma, dosed 30 weeks, study length 102 weeks", "result": 22.7, "unit": "mg/kg/day"},
      {"measurement": "TD50", "setting": "rat, strain Fischer 344, males, by gavage, site: lung, lesion: adenocarcinoma, dosed 30 weeks, study length 102 weeks", "result": 8.32, "unit": "mg/kg/day"},
      {"measurement": "TD50", "setting": "rat, strain Fischer 344, males, by gavage, site: lung, lesion: adenoma, dosed 30 weeks, study length 102 weeks", "result": 14.7, "unit": "mg/kg/day"},
      {"measurement": "TD50", "setting": "rat, strain Fischer 344, males, by gavage, site: nasal cavity, lesion: several types, types named in the paper, dosed 30 weeks, study length 102 weeks", "result": 46.6, "unit": "mg/kg/day"},
      {"measurement": "TD50", "setting": "rat, strain Fischer 344, males, by gavage, site: urinary bladder, lesion: transitional-cell carcinoma, dosed 30 weeks, study length 102 weeks", "result": 1.26, "unit": "mg/kg/day"}
    ]}
  ]
}
